Reference: US20120003655A1, “IDENTIFICATION OF NEUROPROTECTIVE AGENTS USING PRO-INFLAMMATORY HUMAN GLIAL CELLS” (The Salk Institute for Biological Studies, priority 2008, published 2012)
Entries after “also recorded” stand apart in the source; their conditions may differ.

Experiments:
primary human astrocytes = experiment: qPCR of IL1b-induced genes in primary human astrocytes; format: cell-based; settings: 1 μM for 1 hour, then 10 ng/ml IL1b 6 hours; qPCR normalized against HPRT
Experimental: (§1) FIGS. 31A-F show indazol-estrogen suppression of the inflammation in human primary microglia and astrocytes. Primary human microglia (FIGS. 31A-C) and primary human atrocities (FIGS. 31D-E) were treated with Indazol-Estrogen-Bromide (Br), Indazol-Estrogen-Chloride (Cl), 17β-Estradiol (E2) or vehicle (ethanol:EtOH) for 1 hour followed by […] LPS stimulation for 6 hours (black column: 6 hr) or no LPS treatment (white column: Ohr). Normalized mRNA expression against HPRT of IL1β (FIG. 31A), IL23p19 (FIG. 31B), TGFβ (FIG. 31C) in microglia cells and BAFF (FIG. 31D), IL23p19 (FIG. 31E), iNOS (FIG. 31F) in astrocytes were determined using quantitative PCR. Primary human microglia and astrocytes were treated with 1 μM Indazol-Estrogen-Bromide (Br), 1 μM Indazol-Estrogen-Chloride (C1), 1 μM17β-Estradiol (E2) or vehicle (ethanol:EtOH) for 1 hour as a final concentration. Then microglia cells were stimulated with 0.1 μg/ml LPS and astrocytes were stimulated with 10 ng/ml IL1b for 6 hours. mRNA were purified and cDNA were generated by reverse transcriptase reaction. To determine the effect of ERβ-specific ligands in microglia and astrocytes-mediated inflammation, the activation of several genes induced by LPS in microglia or by IL1b in astrocytes were determined by QPCR normalized against HPRT.

[1] = tested on: SOD^G37R mutated astrocyte cultures; experiment: Detection of ROS production in SOD1 G37R astrocytes after anti-oxidant treatment; format: cell-based, human; settings: 48 hours treatment, vs vehicle (EtOH or DMSO); apocynin 300 μM, alpha lipoic acid 50 μg/mL, epicatechin 10 μM, luteolin 5 μM, resveratrol 5 μM
Experimental: Primary astrocyte culture. Human primary astrocytes (HA1800) were obtained from ScienCell Research Laboratories™ (Carlsbad, Calif.) and were cultured according to the providers' guidelines. Briefly, the astrocytes were isolated from fetal human brain (cerebral cortex) and cultured for no more than 15 passages in astrocyte media (AM 1801). The infections were performed in 80% confluent T75 flasks followed by incubation with the lentivirus expressing either the wild type of SOD1 (LV-SOD1^wT) or the mutated form of SOD1 (LV-SOD1^G37R).
Detection of ROS production. Detection of total cellular ROS was performed using the Image-iT LIVE Green reactive Oxygen Species Detection Kit, according to the manufacturer's directions (Molecular Probes, Invitrogen). Briefly, this assay is based on the principle that the live cell permeable compound, carboxy-H2DCFDA, emits a bright green fluorescence when it is oxidized in the presence of ROS. The quantification of the ROS production was addressed in 2 ways: 1) counting the number of fluorescent cells and 2) measuring the intensity of the fluorescence emitted by the cells. The relative fluorescence intensity (arbitrary units ranging from 0 to 255, or black to white) was measured in randomly selected fields for each treatment and was analyzed and quantified using ImageProPlus software.
Anti-oxidants treatment. Anti-oxidants stock solutions were diluted in astrocyte media and directly applied to astrocyte monolayers. The cultures were treated for 48 hours prior to reactive species of oxygen (ROS) detection. The compounds used in the experiment were epicatechin (E4018 Sigma Aldrich, 10 μM), luteolin (L9283 Sigma-Aldrich, 5 μM), resveratrol (R5010Sigma-Aldrich, 5 μM), apocynin (178385 Calbiochem, 300 μM), alpha lipoic acid (T5625, Sigma-Aldrich, 50 μg/mL). For neuronal co-cultures, the astrocytes were pre-treated for 48 hours with apocynin and the rosettes were plated on top of them. The co-cultures were carried for 3 more weeks and the medium containing apocynin was replaced three more times during the co-culture period.
A total of five compounds and their respective vehicles (ethanol (EtOH) or DMSO) were tested in SOD^G37R mutated astrocyte cultures to address their anti-oxidant potential (FIG. 4A).

[2] = tested on: HESC-derived motor neurons co-cultured with SOD1^G37R astrocytes; experiment: Co-culture of HESC-derived motor neurons with SOD1 astrocytes, quantification of ChAT-positive cells; format: cell-based, human; settings: astrocytes pre-treated 48 hours with apocynin, co-culture 3 more weeks
Experimental: Culture conditions and differentiation of HESC. The HUES cells lines used in this study were HUES9 (Douglas Melton-WiCell) and Cythera 203 (Novocell Inc. San Diego, Calif.). The HESC were differentiated in vitro in motor neurons, adapting the protocol previously described elsewhere (Li et al., 2005). Briefly, the cells were manually dissociated to form embryoid bodies (EBs) and cultured in suspension for 5-6 days. The EBs were then plated in laminin/poli-ornithin coated plates in the presence of a neural induction medium consisting of F12/DMEM (Invitrogen, Carlsbad, Calif.), N2 supplement and 1 μM retinoic acid (RA). The cells started to organize into neural tube-like rosettes and, after 7-8 days in culture, sonic hedgehog (SHH, 500 ng/ml, R&D Systems) and cAMP (1 μM) were added to the culture media for 1 more week. The rosettes were then manually selected using a 10× magnifier (Zeiss) and gently dissociated (by pipetting up and down in a Hanks' enzyme free cell dissociation buffer-Invitrogene). After dissociation, rosettes were pelleted at 1,000 rpm and re-plated either on laminin/poli-ornithine coated coverslips (for direct differentiation) or on top of astrocyte feeder layers for the co-culture experiments. […]

primary human microglia = experiment: qPCR of LPS-induced genes in primary human microglia; format: cell-based; settings: 1 μM for 1 hour, then 0.1 μg/ml LPS 6 hours; qPCR normalized against HPRT
Experimental: as §1

C[C@]12CC[C@@H]3c4ccc(O)cc4CC[C@H]3[C@@H]1CC[C@@H]2O [Estradiol, 17β-Estradiol]
BAFF mRNA (primary human astrocytes): not | IL23 (IL23p19) mRNA (primary human astrocytes): not | iNOS mRNA (primary human astrocytes): not

COc1cc(C(C)=O)ccc1O [apocynin]
percentage of cells that were able to produce ROS (percentage of oxidation) [1]: decreased the percentage of cells that were able to produce ROS; also recorded: decreased the ROS production | motor neuron survival (ChAT-positive cells) [2]: restored motor neuron survival; also recorded: recovery of motor neuron survival | motor neuron survival (ChAT-positive cells) ([2]; listed as Apocynin): rescued the motor neuron survival

Oc1ccc(-n2nc3ccc(O)cc3c2Br)cc1 [Indazol-Br]
TGFβ mRNA (primary human microglia): do not repress | induction of IL1β mRNA (primary human microglia): repress | induction of IL23 (IL23p19) mRNA (primary human microglia): repress | BAFF mRNA (primary human astrocytes): repress | IL23 (IL23p19) mRNA (primary human astrocytes): repress | iNOS mRNA (primary human astrocytes): repress

O=c1cc(-c2ccc(O)c(O)c2)oc2cc(O)cc(O)c12 [luteolin]
percentage of cells that were able to produce ROS (percentage of oxidation) [1]: did not seem to have a detectable effect

O=C(O)CCCCC1CCSS1 (stereo not drawn) [alpha-lipoic acid, alpha lipoic acid]
percentage of cells that were able to produce ROS (percentage of oxidation) [1]: decreased the percentage of cells that were able to produce ROS

Oc1ccc(-n2nc3ccc(O)cc3c2Cl)cc1 [Indazol-Cl]
TGFβ mRNA (primary human microglia): do not repress | induction of IL1β mRNA (primary human microglia): repress | induction of IL23 (IL23p19) mRNA (primary human microglia): repress | BAFF mRNA (primary human astrocytes): repress | IL23 (IL23p19) mRNA (primary human astrocytes): repress | iNOS mRNA (primary human astrocytes): repress

Oc1ccc(C=Cc2cc(O)cc(O)c2)cc1 [resveratrol]
percentage of cells that were able to produce ROS (percentage of oxidation) [1]: did not seem to have a detectable effect
